Source: patent US10662204B2 (PFIZER INC., priority 2018, dated 2020)

Assays:
[1] = target: T1, GDP-loaded KRAS (1-169) G12C, C51S, C80L, C118S (Homo sapiens, UniProt P01116, C118S/C51S/C80L/G12C); experiment: Mass Spectrometry Reactivity Assay (MSRA): covalent adduct of compound and KRAS G12C, Percent Modification; assay type: binding; settings: for MSRA (% modification) 5.0 μM 0.017 hr / MSRA (% modification) 5.0 μM 0.25 hr: 5.0 μM compound; for MSRA (% modification) 10 μM 0.25 hr / MSRA (% modification) 10 μM 0.50 hr: 10 μM compound
T1 construct: GDP-loaded KRAS (1-169) G12C, C51S, C80L, C118S
Procedure, shortened: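 GDP-loaded KRAS(1-169) G12C/C51S/C80L/C118S at 5 μM in 25 mM Hepes pH 7.5, 200 mM NaCl, 5% glycerol incubated at RT with compound (typically 5 or 10 μM final, 1% DMSO). Quenched in formic acid at 1-60 min; intact-protein LC-TOF MS gives % modification = modified/(modified+unmodified).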

[2] = target: KRAS G12C (Homo sapiens, UniProt P01116, G12C); experiment: Cell Activity Assay: accumulation of GDP-bound KRAS G12C in MIAPaCa-2 cells (Raf-1 RBD capture, MSD readout); assay type: cell-based; set-up: endogenous in cells; host or cells: MIAPaCa-2; settings: 6 hours, assay limit is 30.00
Procedure, shortened: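 MIAPaCa-2 cells exposed 6 h at 37 °C to 3-fold compound dilutions (0.3% DMSO final), then lysed. Active GTP-KRAS captured on Raf-1 RBD-coated plates, detected with anti-pan-Ras and SULFO-TAG secondary by MSD electrochemiluminescence. Signal normalized to DMSO and maximum inhibition; IC50 from 4-parameter fit.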

Row | Compound | MSRA (% modification) 5.0 μM 0.017 hr [1] [%] | IC50 [2] [µM] | MSRA (% modification) 10 μM 0.25 hr [1] [%] | MSRA (% modification) 10 μM 0.50 hr [1] [%] | MSRA (% modification) 5.0 μM 0.25 hr [1] [%]
1 | C=CC(=O)N1CCN(c2nc(O[C@@H]3CN(C)C[C@H]3OC)nc3c(Oc4c(Cl)c(Cl)cc5[nH]ncc45)nccc23)CC1 [Example 19H, 1-[4-(8-[(5,6-dichloro-1H-indazol-4-yl)oxy]-2-{[(3R,4R)-4-methoxy-1-methylpyrrolidin-3-yl]oxy}pyrido[3,4-d]pyrimidin-4-yl)piperazin-1-yl]prop-2-en-1-one] | 66 | 0.004 | – | – | –
2 | C=CC(=O)N1CCN(c2nc(Oc3cccc4c3CCN(C(C)C)C4)nc3c(Oc4c(Cl)c(F)cc5[nH]ncc45)nccc23)CC1 [Example 19I, 1-[4-(8-[(5-chloro-6-fluoro-1H-indazol-4-yl)oxy]-2-{[2-(propan-2-yl)-1,2,3,4-tetrahydro-isoquinolin-5-yl]oxy}pyrido [3,4-d]pyrimidin-4-yl)piperazin-1-yl]prop-2-en-1-one] | 82 | 0.003 | – | – | –
3 | C=CC(=O)N1CCN(c2nc(OC[C@H]3CCCN3C)nc3c(Oc4c(Cl)c(F)cc5[nH]ncc45)cccc23)CC1 [Example 20E, 1-[4-(8-[(5-chloro-6-fluoro-1H-indazol-4-yl)oxy]-2-{[(2R)-1-methylpyrrolidin-2-yl]methoxy}quinazolin-4-yl)piperazin-1-yl]prop-2-en-1-one] | – | 1.02 | 8 | – | –
4 | C=CC(=O)N1CCN(c2nc(NCc3ncc[nH]3)nc3c(Oc4c(C)ccc5[nH]ncc45)cccc23)CC1 [Example 20F, 1-(4-{2-[(1H-imidazol-2-ylmethyl)amino]-8-[(5-methyl-1H-indazol-4-yl)oxy]quinazolin-4-yl}piperazin-1-yl)prop-2-en-1-one] | – | 2.99 | 17 | – | –
5 | C=CC(=O)N1CCN(c2nc(O[C@@H]3CN(C(C)C)C[C@H]3OC)nc3c(Oc4c(Cl)c(F)cc5[nH]ncc45)nccc23)CC1 [Example 20I, 1-[4-(8-[(5-chloro-6-fluoro-1H-indazol-4-yl)oxy]-2-{[(3R,4R)-4-methoxy-1-(propan-2-yl)pyrrolidin-3-yl]oxy}pyrido [3,4-d]pyrimidin-4-yl)piperazin-1-yl]prop-2-en-1-one] | 73 | 0.016 | – | – | –
6 | C=CC(=O)N1CCN(c2ncnc3c(Oc4c(Cl)c(C)cc5[nH]ncc45)nccc23)C[C@H]1C [Example 21A, 1-[(2R)-4-{8-[(5-chloro-6-methyl-1H-indazol-4-yl)oxy]pyrido[3,4-d]pyrimidin-4-yl}-2-methylpiperazin-1-yl]prop-2-en-1-one] | – | 10.6 | – | 12 | –
7 | C=CC(=O)N1CCN(c2nc(OC[C@H]3CCCN3C)nc3c(Oc4c(C)c(Cl)cc5[nH]ncc45)cccc23)CC1 [Example 21E, 1-[4-(8-[(6-chloro-5-methyl-1H-indazol-4-yl)oxy]-2-{[(2R)-1-methylpyrrolidin-2-yl]methoxy}quinazolin-4-yl)piperazin-1-yl]prop-2-en-1-one] | – | 0.18 | 65 | – | –
8 | C=CC(=O)N1CCN(c2nc(OCC3CCCCN3C)nc3c(Oc4c(C)ccc5[nH]ncc45)cccc23)CC1 (stereo not shown) [Example 21F, 1-(4-{8-[(5-methyl-1H-indazol-4-yl)oxy]-2-[(1-methylpiperidin-2-yl)methoxy]quinazolin-4-yl}piperazin-1-yl)prop-2-en-1-one] | – | 0.283 | – | – | 61
9 | C=CC(=O)N1CCN(c2nc(OC[C@@H]3C[C@H](F)CN3C)nc3c(Oc4c(Cl)c(F)cc5[nH]ncc45)nc(Cl)cc23)CC1 [Example 21G, 1-[4-(6-chloro-8-[(5-chloro-6-fluoro-1H-indazol-4-yl)oxy]-2-{[(2S,4S)-4-fluoro-1-methylpyrrolidin-2-yl]methoxy}pyrido[3,4-d]pyrimidin-4-yl)piperazin-1-yl]prop-2-en-1-one] | – | 0.075 | 80 | – | –

Other lines, results leading:

Row | MSRA (% modification) 5.0 μM 0.017 hr [1] [%] | IC50 [2] [µM] | MSRA (% modification) 10 μM 0.25 hr [1] [%] | MSRA (% modification) 10 μM 0.50 hr [1] [%] | MSRA (% modification) 5.0 μM 0.25 hr [1] [%] | Compound
10 | – | 15.6 | – | 10 | – | C=CC(=O)N1CCN(c2ncnc3c(Oc4c(Cl)c(C)cc5[nH]ncc45)nccc23)C[C@@H]1C [Example 22A, 1-[(2S)-4-{8-[(5-chloro-6-methyl-1H-indazol-4-yl)oxy]pyrido[3,4-d]pyrimdin-4-yl}-2-methylpiperazin-1-yl]prop-2-en-1-one]
11 | – | 14 | 75 | 75 | – | C=CC(=O)N1CCN(c2ncnc3c(Oc4c(C)c(Cl)cc5[nH]ncc45)cccc23)CC1CC#N (stereo not shown) [Example 22C, (1-acryloyl-4-{8-[(5-chloro-6-mehtyl-1H-indazol-4-yl)oxy]quinazolin-4-yl}piperazin-2-yl)acetonitrile]
12 | – | 0.056 | 81 | 83 | 83 | C=CC(=O)N1CCN(c2nc(OC[C@@H]3CCCN3C)nc3c(Oc4c(C)c(Cl)cc5[nH]ncc45)cccc23)CC1 [Example 22E, 1-[4-(8-[(6-chloro-5-methyl-1H-indazol-4-yl)oxy]-2-{[(2S)-1-methylpyrrolidin-2-yl]methoxy}quinazolin-4-yl)piperazin-1-yl]prop-2-en-1-one]
13 | – | 0.535 | – | – | 33 | C=CC(=O)N1CCN(c2nc(OCc3cscn3)nc3c(Oc4c(C)ccc5[nH]ncc45)nccc23)CC1 [Example 22F, 1-(4-{8-[(5-methyl-1H-indazol-4-yl)oxy]-2-(1,3-thiazol-4-ylmethoxy)pyrido[3,4-d]pyrimidin-4-yl}piperazin-1-yl)prop-2-en-1-one]
14 | – | 0.072 | 81 | – | – | C=CC(=O)N1CCN(c2nc(OC[C@H]3C[C@@H](F)CN3C)nc3c(Oc4c(Cl)c(F)cc5[nH]ncc45)nc(Cl)cc23)CC1 [Example 22G, 1-[4-(6-chloro-8-[(5-chloro-6-fluoro-1H-indazol-4-yl)oxy]-2-{[(2R,4R)-4-fluoro-1-methylpyrrolidin-2-yl]methoxy}pyrido[3,4-d]pyrimidin-4-yl)piperazin-1-yl]prop-2-en-1-one]
15 | 80 | 0.003 | – | – | – | C=CC(=O)N1CCN(c2nc(Oc3cccc4c3CCN(C)C4)nc3c(Oc4c(Cl)c(F)cc5[nH]ncc45)nccc23)CC1 [Example 22I, 1-(4-{8-[(5-chloro-6-fluoro-1H-indazol-4-yl)oxy]-2-[(2-methyl-1,2,3,4-tetrahydro-isoquinolin-5-yl)oxy]pyrido [3,4-d]pyrimidin-4-yl}piperazin-1-yl)prop-2-en-1-one]
16 | – | 11.6 | – | 20 | – | C=CC(=O)N1CCN(c2ncnc3c(Oc4c(C)c(Cl)cc5[nH]ncc45)nccc23)C[C@@H]1C [Example 23A, 1-[(2S)-4-{8-[(6-chloro-5-methyl-1H-indazol-4-yl)oxy]pyrido[3,4-d]pyrimidin-4-yl}-2-methylpiperazin-1-yl]prop-2-en-1-one]
17 | – | 0.944 | 66 | – | 55 | C=CC(=O)N1CCN(c2nc(OCc3cscn3)nc3c(Oc4c(C)ccc5[nH]ncc45)cccc23)CC1 [Example 23F, 1-(4-{8-[(5-methyl-1H-indazol-4-yl)oxy]-2-(1,3-thiazol-4-ylmethoxy)quinazolin-4-yl}piperazin-1-yl)prop-2-en-1-one]
18 | – | 0.688 | – | – | 35 | C=CC(=O)N1CCN(c2nc(OCCO)nc3c(Oc4c(Cl)c(F)cc5[nH]ncc45)nc(Cl)cc23)CC1 [Example 23G, 1-(4-{6-chloro-8-[(5-chloro-6-fluoro-1H-indazol-4-yl)oxy]-2-(2-hydroxyethoxy)pyrido[3,4-d]pyrimidin-4-yl}piperazin-1-yl)prop-2-en-1-one]
